In patent publication US10745382B2 (BRISTOL-MYERS SQUIBB COMPANY, priority 2015, dated 2020):
pIC50: −log10 of the molar value.

Target: T1, PD-1/PD-L1 (Homo sapiens, UniProt Q9NZQ7)
T1 construct: made in house; host or cells: HEK293T
Assay: PD-1/PD-L1 Homogenous Time-Resolved Fluorescence (HTRF) binding assay
Settings: PD-L1-His 10 nM, PD-1-Ig 20 nM; value given as range class; read-out: Range or IC50
In short: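 Binding measured in dPBS with 0.1% BSA and 0.05% Tween-20, detected by HTRF with europium cryptate anti-Ig (1 nM final) and APC anti-His (20 nM final) added over the binding reaction. Counter-assays used human PD-1-Ig/PD-L2-His (20 and 5 nM) and CD80-His/PD-L1-Ig (100 and 10 nM).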

T1 sequence (Q9NZQ7 with tags, fused parts or gaps): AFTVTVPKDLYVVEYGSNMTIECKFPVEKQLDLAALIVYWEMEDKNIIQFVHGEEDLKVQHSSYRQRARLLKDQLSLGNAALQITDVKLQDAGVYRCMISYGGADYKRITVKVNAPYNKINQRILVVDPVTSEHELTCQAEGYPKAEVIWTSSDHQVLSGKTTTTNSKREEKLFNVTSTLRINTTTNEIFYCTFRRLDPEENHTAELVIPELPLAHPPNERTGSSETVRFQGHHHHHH

Row | SMILES | pIC50
1 | Cc1c(CCCCN2CC[C@@H](O)C2)cccc1-c1cccc(COc2cc(OCc3cncc(C#N)c3)c(CN3CCN(C(=O)OC(C)(C)C)C[C@H]3C(=O)O)cc2Cl)c1C [Example 4068, (S)-4-(tert-butoxycarbonyl)-1-(5-chloro-2-((5-cyanopyridin-3-yl)methoxy)-4-((3′-(4-((R)-3-hydroxypyrrolidin-1-yl)butyl)-2,2′-dimethyl-[1,1′-biphenyl]-3-yl)methoxy)benzyl)piperazine-2-carboxylic Acid] | 8.00 to 9.68
2 | Cc1c(COc2cc(OCc3cncc(C#N)c3)c(CNC(CO)CO)cc2Cl)cccc1-c1cccc(C(=O)N2CCOCC2)c1C [Example 4052, 5-((4-chloro-2-(((1,3-dihydroxypropan-2-yl)amino)methyl)-5-((2,2′-dimethyl-3′-(morpholine-4-carbonyl)-[1,1′-biphenyl]-3-yl)methoxy)phenoxy)methyl)nicotinonitrile] | 7.00 to 8.00
3 | Cc1c(COc2cc(OCc3cncc(C#N)c3)c(CN[C@@](C)(CO)C(=O)O)cc2Cl)cccc1-c1cccc(OCCCN2CC(=O)NC(=O)C2)c1C [Example 2327, (S)-2-((5-chloro-2-((5-cyanopyridin-3-yl)methoxy)-4-((3′-(3-(3,5-dioxopiperazin-1-yl)propoxy)-2,2′-dimethyl-[1,1′-biphenyl]-3-yl)methoxy)benzyl)amino)-3-hydroxy-2-methylpropanoic Acid] | 8.00 to 9.68
4 | Cc1c(COc2cc(O)c(CO)cc2Cl)cccc1-c1cccc(OCCCN2CCCCC2)c1Cl [Example 2017, 4-chloro-5-((2′-chloro-2-methyl-3′-(3-(piperidin-1-yl)propoxy)-[1,1′-biphenyl]-3-yl)methoxy)-2-(hydroxymethyl)phenol] | 7.00 to 8.00
5 | Cc1c(COc2cc(OCc3cncc(C#N)c3)c(CN[C@@](C)(CO)C(=O)O)cc2Cl)cccc1-c1cccc(OCCCN2CCC[C@@H](C(=O)O)C2)c1C [Example 2239, (3R)-1-(3-(3′-((4-(((S)-2-carboxy-1-hydroxypropan-2-ylamino)methyl)-2-chloro-5-((5-cyanopyridin-3-yl)methoxy)phenoxy)methyl)-2,2′-dimethylbiphenyl-3-yloxy)propyl)piperidine-3-carboxylic Acid] | 8.00 to 9.68
6 | Cc1c(COc2cc(OCc3cncc(C#N)c3)c(CO)cc2Cl)cccc1-c1cccc(OCCCN2CC[C@@H](O)C2)c1C(F)F [Example 1515, (R)-5-((4-chloro-5-((2′-(difluoromethyl)-3′-(3-(3-hydroxypyrrolidin-1-yl)propoxy)-2-methyl-[1,1′-biphenyl]-3-yl)methoxy)-2-(hydroxymethyl)phenoxy)methyl)nicotinonitrile] | 7.00 to 8.00
7 | COC(=O)C1(O)CCN(CCCOc2cccc(-c3cccc(COc4cc(OCc5cncc(C#N)c5)c(CN[C@](C)(CO)C(=O)O)cc4Cl)c3C)c2C)CC1 [Example 1030, (R)-2-((5-chloro-2-((5-cyanopyridin-3-yl)methoxy)-4-((3′-(3-(4-hydroxy-4-(methoxycarbonyl)piperidin-1-yl)propoxy)-2,2′-dimethyl-[1,1′-biphenyl]-3-yl)methoxy)benzyl)amino)-3-hydroxy-2-methylpropanoic Acid] | 8.00 to 9.68
8 | Cc1c(COc2cc(OCc3cncc(C(N)=O)c3)c(CN3CCCC[C@H]3C(=O)O)cc2Cl)cccc1-c1cccc(OCCCN2CCC(CO)(C(=O)O)C2)c1Cl (stereo partly drawn) [Example 1107, (2S)-1-(2-((5-carbamoylpyridin-3-yl)methoxy)-4-((3′-(3-(3-carboxy-3-(hydroxymethyl)pyrrolidin-1-yl)propoxy)-2′-chloro-2-methyl-[1,1′-biphenyl]-3-yl)methoxy)-5-chlorobenzyl)piperidine-2-carboxylic Acid] | 8.00 to 9.68
9 | Cc1c(COc2cc(OCc3cncc(S(C)(=O)=O)c3)c(CN[C@](C)(CO)C(=O)O)cc2Cl)cccc1-c1cccc(OCCCN2CCC(CO)(C(=O)O)C2)c1C (stereo partly drawn) [Example 1048, 1-(3-((3′-((4-((((R)-2-carboxy-1-hydroxypropan-2-yl)amino)methyl)-2-chloro-5-((5-(methylsulfonyl)pyridin-3-yl)methoxy)phenoxy)methyl)-2,2′-dimethyl-[1,1′-biphenyl]-3-yl)oxy)propyl)-3-(hydroxymethyl)pyrrolidine-3-carboxylic Acid] | 8.00 to 9.68
10 | Cc1c(COc2cc(OCc3cncc(C#N)c3)c(CN3CCNC[C@H]3C(=O)O)cc2Cl)cccc1-c1cccc(C(=O)N2CCOCC2)c1C [Example 4060, (S)-1-(5-chloro-2-((5-cyanopyridin-3-yl)methoxy)-4-((2,2′-dimethyl-3′-(morpholine-4-carbonyl)-[1,1′-biphenyl]-3-yl)methoxy)benzyl)piperazine-2-carboxylic Acid] | 5.70 to 7.00
11 | Cc1c(OCCCN2CC[C@@H](O)C2)cccc1-c1cccc(COc2cc(OCc3cncc(C#N)c3)c(CN[C@H](CO)C(=O)O)cc2Cl)c1 [Example 3016, (R)-2-((5-chloro-2-((5-cyanopyridin-3-yl)methoxy)-4-((3′-(3-((R)-3-hydroxypyrrolidin-1-yl)propoxy)-2′-methyl-[1,1′-biphenyl]-3-yl)methoxy)benzyl)amino)-3-hydroxypropanoic Acid] | 8.00 to 9.68
12 | Cc1c(COc2cc(OCc3cncc(S(C)(=O)=O)c3)c(CN3CCCC[C@H]3C(=O)O)cc2Cl)cccc1-c1cccc(OCCCN2CC[C@H](O)C2)c1C [Example 1090, (S)-1-(5-chloro-4-((3′-(3-((S)-3-hydroxypyrrolidin-1-yl)propoxy)-2,2′-dimethyl-[1,1′-biphenyl]-3-yl)methoxy)-2-((5-(methylsulfonyl)pyridin-3-yl)methoxy)benzyl)piperidine-2-carboxylic Acid] | 8.00 to 9.68

Next, values leading:

Row | pIC50 | SMILES
13 | 8.00 to 9.68 | Cc1c(COc2cc(OCc3cncc(C#N)c3)c(CN3CCCC[C@H]3C(=O)O)cc2Cl)cccc1-c1cccc(OCCCN2CCC[C@@H](C(=O)O)C2)c1C [Example 2205, (2S)-1-(4-((3′-(3-((R)-3-carboxypiperidin-1-yl)propoxy)-2,2′-dimethylbiphenyl-3-yl)methoxy)-5-chloro-2-((5-cyanopyridin-3-yl)methoxy)benzyl)piperidine-2-carboxylic Acid]
14 | 8.00 to 9.68 | Cc1c(OCCCNC[C@H](O)CO)cccc1-c1cccc(COc2cc(OCc3cncc(C#N)c3)c(CN3CCCC[C@H]3C(=O)O)cc2Cl)c1Cl [Example 2303, (S)-1-(5-chloro-4-((2-chloro-3′-(3-(((S)-2,3-dihydroxypropyl)amino)propoxy)-2′-methyl-[1,1′-biphenyl]-3-yl)methoxy)-2-((5-cyanopyridin-3-yl)methoxy)benzyl)piperidine-2-carboxylic Acid]
15 | 8.00 to 9.68 | Cc1c(COc2cc(OCc3ccc(F)c(F)c3)c(CNC(CO)CO)cc2Cl)cccc1-c1cccc(OCCCN2CC[C@@H](O)C2)c1C [Example 4509, (R)-2-((5-chloro-2-((3,4-difluorobenzyl)oxy)-4-((3′-(3-(3-hydroxypyrrolidin-1-yl)propoxy)-2,2′-dimethyl-[1,1′-biphenyl]-3-yl)methoxy)benzyl)amino)propane-1,3-diol]
16 | 8.00 to 9.68 | CC(=O)NC1CCN(CCCOc2cccc(-c3cccc(COc4cc(OCc5cncc(C#N)c5)c(CN5CCCC[C@H]5C(=O)O)cc4Cl)c3C)c2C)CC1 [Example 1105, (S)-1-(4-((3′-(3-(4-acetamidopiperidin-1-yl)propoxy)-2,2′-dimethyl-[1,1′-biphenyl]-3-yl)methoxy)-5-chloro-2-((5-cyanopyridin-3-yl)methoxy)benzyl)piperidine-2-carboxylic Acid]
17 | 8.00 to 9.68 | Cc1c(COc2cc(OCc3cncc(C#N)c3)c(CN[C@@](C)(CO)C(=O)O)cc2Cl)cccc1-c1cccc(O[C@@H](C)CCN2CC[C@@H](O)C2)c1Cl [Example 1521, (S)-2-((5-chloro-4-((2′-chloro-3′-(((S)-4-((R)-3-hydroxypyrrolidin-1-yl)butan-2-yl)oxy)-2-methyl-[1,1′-biphenyl]-3-yl)methoxy)-2-((5-cyanopyridin-3-yl)methoxy)benzyl)amino)-3-hydroxy-2-methylpropanoic acid]
18 | 8.00 to 9.68 | C[C@](CO)(NCc1cc(Cl)c(OCc2cccc(-c3cccc(OCCCN4CCC(O)(CO)CC4)c3Cl)c2Cl)cc1OCc1cncc(C#N)c1)C(=O)O [Example 2065, (R)-2-((5-chloro-2-((5-cyanopyridin-3-yl)methoxy)-4-((2,2′-dichloro-3′-(3-(4-hydroxy-4-(hydroxymethyl)piperidin-1-yl)propoxy)-[1,1′-biphenyl]-3-yl)methoxy)benzyl)amino)-3-hydroxy-2-methylpropanoic Acid]
19 | 8.00 to 9.68 | Cc1c(COc2cc(OCc3cncc(C#N)c3)c(CN3CC[C@H]3C(=O)O)cc2Cl)cccc1-c1cccc(OCCC(=O)N2CC[C@@H](O)C2)c1 [Example 1012, (S)-1-(5-chloro-2-((5-cyanopyridin-3-yl)methoxy)-4-((3′-(3-((R)-3-hydroxypyrrolidin-1-yl)-3-oxopropoxy)-2-methyl-[1,1′-biphenyl]-3-yl)methoxy)benzyl)azetidine-2-carboxylic Acid]
20 | 8.00 to 9.68 | Cc1c(COc2cc(OCc3cncc(C#N)c3)c(CN3CCCC[C@H]3C(=O)O)cc2Cl)cccc1-c1cccc(OCCCN2CCC(O)(CC(=O)O)C2)c1C (mixture of isomers) [Example 1519, (2S)-1-(4-((3′-(3-(3-(carboxymethyl)-3-hydroxypyrrolidin-1-yl)propoxy)-2,2′-dimethyl-[1,1′-biphenyl]-3-yl)methoxy)-5-chloro-2-((5-cyanopyridin-3-yl)methoxy)benzyl)piperidine-2-carboxylic acid]
21 | 8.00 to 9.68 | Cc1c(COc2cc(OCc3cncc(C#N)c3)c(CN[C@H](CO)C(=O)O)cc2Cl)cccc1-c1cccc(OCCCN2CC[C@@](O)(c3ccc(Cl)cc3)[C@](C)(O)C2)c1Cl [Example 1089, (5-chloro-4-((2′-chloro-3′-(3-((3R,4R)-4-(4-chlorophenyl)-3,4-dihydroxy-3-methylpiperidin-1-yl)propoxy)-2-methyl-[1,1′-biphenyl]-3-yl)methoxy)-2-((5-cyanopyridin-3-yl)methoxy)benzyl)-D-serine]
